Data published in ChEMBL document CHEMBL3856230, “Structure-Activity Relationships of Di-2-pyridylketone, 2-Benzoylpyridine, and 2-Acetylpyridine Thiosemicarbazones for Overcoming Pgp-Mediated Drug Resistance” (J Med Chem, 2016).
Calls of active or inactive are those of the source. No cut-off for these calls is given here.

Key:
KB 3-1 [1] = test: (§1) Antiproliferative activity against human KB3-1 cells after 24 hrs by MTT assay; format: functional, cell-based
KB 3-1 [2] = test: (§2) Antiproliferative activity against human KB3-1 cells after 24 hrs in presence of P-gp inhibitor elacridar by MTT assay; format: functional, cell-based
[3] = Selectivity ratio of IC50 for human KB31 cells to IC50 for human KBV1 cells over expressing P-gp; format: functional
Homo sapiens [4] = species: Homo sapiens; test: Substrate activity at P-gp (unknown origin) in P-gp enriched membranes assessed as increase in ATPase activity at 50 uM in presence of Mg2-ATP after 40 mins by luciferase reporter gen assay relative to control; format: cell membranes
KBV1 [5] = test: Induction of P-gp-mediated lysosomal membrane permeabilization in human KBV1 cells over expressing P-gp assessed as cathepsin D release from lysosome to cytosol at 25 uM after 24 hrs by TexasRed staining based immunofluorescence microscopic analysis; format: cell-based
KBV1 [6] = test: Induction of P-gp-mediated lysosomal membrane permeabilization in human KBV1 cells over expressing P-gp assessed as increase in LAMP2 fluorescence at 25 uM after 24 hrs by TexasRed staining based immunofluorescence microscopic analysis; format: cell-based
KB-V1 [7] = test: Induction of copper-dependent lysosomal membrane permeabilization in human KBV1 cells over expressing P-gp assessed as decrease in cathepsin D and LAMP2 lysosomal colocalization at 25 uM after 24 hrs by TexasRed staining based immunofluorescence microscopic analysis; format: functional, cell-based
KB-V1 [8] = test: Induction of oxidative stress-dependent lysosomal membrane permeabilization in human KBV1 cells over expressing P-gp assessed as decrease in cathepsin D and LAMP2 lysosomal colocalization at 25 uM after 24 hrs by TexasRed staining based immunofluorescence microscopic analysis; format: functional, cell-based
[9] = as §1; format: functional, cell-based; conditions: KB 3-1, 24 h
[10] = as §2; format: functional, cell-based; conditions: KB 3-1, 24 h
[11] = Antiproliferative activity against human KBV1 cells over expressing P-gp after 24 hrs by MTT assay; format: functional, cell-based; conditions: KB-V1, 24 h
[12] = (§3) Antiproliferative activity against human KBV1 cells over expressing P-gp after 24 hrs in presence of P-gp inhibitor elacridar by MTT assay; format: functional, cell-based; conditions: KB-V1, 24 h
KB-V1 [13] = test: as §3; format: functional, cell-based
KBV1 [14] = test: Induction of P-gp-mediated lysosomal membrane permeabilization in human KBV1 cells over expressing P-gp assessed as cathepsin D release from lysosome to cytosol at 10 uM after 24 hrs by TexasRed staining based immunofluorescence microscopic analysis; format: cell-based
KBV1 [15] = test: Induction of P-gp-mediated lysosomal membrane permeabilization in human KBV1 cells over expressing P-gp assessed as increase in LAMP2 fluorescence at 10 uM after 24 hrs by TexasRed staining based immunofluorescence microscopic analysis; format: cell-based
KB-V1 [16] = test: Induction of copper-dependent lysosomal membrane permeabilization in human KBV1 cells over expressing P-gp assessed as decrease in cathepsin D and LAMP2 lysosomal colocalization at 10 uM after 24 hrs by TexasRed staining based immunofluorescence microscopic analysis; format: functional, cell-based
KB-V1 [17] = test: Induction of oxidative stress-dependent lysosomal membrane permeabilization in human KBV1 cells over expressing P-gp assessed as decrease in cathepsin D and LAMP2 lysosomal colocalization at 10 uM after 24 hrs by TexasRed staining based immunofluorescence microscopic analysis; format: functional, cell-based
Homo sapiens [18] = species: Homo sapiens; test: Inhibition of P-gp (unknown origin) in P-gp enriched membranes assessed as […] at 100 uM in presence of Mg2-ATP after 40 mins by luciferase reporter gen assay relative to control; format: cell membranes

For `CN(C)C(=S)N/N=C(/c1ccccc1)c1ccccn1`, the Activity (KB 3-1 [1]) was “Active”, the Activity (KB 3-1 [2]) was “Active” and the “Ratio IC50” value [3] was 13.2. The fold change (FC) (Homo sapiens [4]) was 7.9, the Activity (KBV1 [5]) was “Active” and the Activity (KBV1 [6]) was “Active”. For the same compound, the Activity (KB-V1 [7]) was “Active” and the Activity (KB-V1 [8]) was “Active”.

With `NC(=S)N/N=C/c1ncccc1N` [TRIAPINE] the IC50 [9] was > 800 µM, the IC50 [10] was > 800 µM and the IC50 [11] was > 800 µM. For the same compound, the IC50 [12] was > 800 µM and the fold change (FC) (Homo sapiens [4]) was 4.6.

For `C/C(=N/NC(=S)N(C)C)c1ccccn1`, the Activity (KB 3-1 [1]) was “Active”, the Activity (KB 3-1 [2]) was “Active” and the Activity (KB-V1 [13]) was “Active”. The “Ratio IC50” value [3] was 2.1 and the fold change (FC) (Homo sapiens [4]) was 5.1.

With `CN(C)C(=S)NN=C(c1ccccn1)c1ccccn1` the Activity (KB 3-1 [1]) was “Active”, the Activity (KB 3-1 [2]) was “Active” and the fold change (FC) (Homo sapiens [4]) was 6.6. For the same compound, the Activity (KBV1 [14]) was “Active”, the Activity (KBV1 [15]) was “Active” and the Activity (KB-V1 [16]) was “Active”. The Activity (KB-V1 [17]) was “Active”.

In the case of `CN(C(=S)NN=C(c1ccccn1)c1ccccn1)C1CCCCC1`, the Activity (KB 3-1 [1]) is reported as “Active”, the Activity (KB 3-1 [2]) is reported as “Active” and the “Ratio IC50” value [3] is reported as 8.1. The fold change (FC) (Homo sapiens [4]) was 7.4, the Activity (KBV1 [5]) was “Active” and the Activity (KBV1 [6]) was “Active”. The Activity (KB-V1 [7]) was “Active” and the Activity (KB-V1 [8]) was “Active”.

With `CN(/N=C(\c1ccccc1)c1ccccn1)C(N)=S` the IC50 [9] was > 800 µM, the IC50 [10] was > 800 µM and the IC50 [11] was > 800 µM. For the same compound, the IC50 [12] was > 800 µM and the fold change (FC) (Homo sapiens [4]) was 5.2.

For SODIUM ORTHOVANAD, the fold change (FC) (Homo sapiens [18]) was 11.9.
